Assay results from publication PMC9710854 (Chemical communications (Cambridge, England), 2022).

Assays:
[1] = tested on: MM.1S cells; assay: Cell viability of MM.1S cells after 24 h treatment; type: cell-based
[2] = Plasma protein binding estimated by an HPLC-based method; type: in vitro ADME
[3] = target: USP7 catalytic domain (Homo sapiens, UniProt Q93009); assay: USP7 inhibition with isolated USP7 catalytic domain using Ub-AMC as a substrate; type: biochemical
[4] = Experimental partition coefficient; type: physicochemical

Chain of USP7 catalytic domain (Q93009 214-521 limits assumed): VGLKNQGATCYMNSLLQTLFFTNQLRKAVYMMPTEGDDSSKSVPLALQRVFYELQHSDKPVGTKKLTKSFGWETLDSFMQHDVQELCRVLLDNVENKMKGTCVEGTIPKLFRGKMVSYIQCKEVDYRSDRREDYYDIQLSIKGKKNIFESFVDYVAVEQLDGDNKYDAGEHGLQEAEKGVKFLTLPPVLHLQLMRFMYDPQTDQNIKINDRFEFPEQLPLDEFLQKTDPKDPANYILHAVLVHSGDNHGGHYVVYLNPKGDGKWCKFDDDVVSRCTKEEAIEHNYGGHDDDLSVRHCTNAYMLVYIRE

| fraction unbound ([2]; plasma) | IC50 [3] | logD [4] | PPB ([2]; plasma protein binding, estimated by an HPLC-based method) | Compound | viability at 10 µM ([1]; Homo sapiens, MM1.S, read-out: cell viability) | cell viability ([1]; remaining viability, MM.1S cells, 10 μM) |
| --- | --- | --- | --- | --- | --- | --- |
| 0.1 | 32 ± 7 nM | 2.5 | – | O=C(C[C@@H](C(F)F)n1ccc(F)n1)N1CCC(O)(Cn2cnc3c(cnn3-c3ccc(F)cc3)c2=O)CC1 [Compound 2, FT671] | 41% | – |
| – | – | 1.3 | 87% | C[C@H](CC(=O)N1CCC(O)(Cn2cnc3cc(NC(=O)CCN4CCN(C)CC4)ccc3c2=O)CC1)c1ccccc1 [Compound 3, XL188] | – | 43% |
